The nature of this data set: Phase transition temperature (differential thermal analysis). Type of data set: physicochemical. The settings on record: single phospholipid. On the procedure:
Phase transition temperature was determined by differential thermal analysis.

As for “palmitoylstearoylphosphitadylcholine [PSPC]”, the “phase transition temperature (found value) of phospholipid” value is 47.4 °C.
For “steroylpalmitoylphosphitdylcholine [SPPC]” the value was 44.0 °C.

(Values after patent US5000959A, “Liposome composition and production thereof” (Takeda Chemical Industries, Ltd., priority 1989, dated 1991).)
